These molecules were tested against T1, SYK (Homo sapiens, UniProt P43405) (assay: SYK flash plate assay (enzyme assay)).
T1 construct: 2.5 nM SYK, 400 nM Biotin-Aha-Aha-KEDPDYEWPSAKK
Type: biochemical
Protocol: The kinase assay is performed either as 384-well Flashplate assay (for e.g. Topcount measurement) or as 384-well Image-Flashplate assay (for LEADseeker measurement).
2.5 nM SYK, 400 nM Biotin-Aha-Aha-KEDPDYEWPSAKK
and 10 μM ATP (spiked with 0.3 μCi 33P-ATP/well) are incubated in a total volume of 50 μl (60 mM Hepes, 10 mM MgCl2, 1.2 mM Dithiothreitol, 0.02% Brij35, 0.1% BSA, pH 7.5) with or without test compound for 1 hours at 30° C. The reaction is stopped with 25 μl 200 mM EDTA. After 30 Min at 30° C. the liquid is removed and each well washed thrice with 100 μl 0.9% sodium chloride solution. Non-specific reaction is determined in presence of […] Staurosporine. Radioactivity is measured with Topcount (when using Flashplates) or with LEADseeker (when using Image-Flashplates) respectively. Results (e.g. IC50-values) are calculated with program tools provided by the IT-department (e.g. Symyx Assay Explorer, Genedata Screener). In Vivo Assays CIA

| IC50 | Structure (SMILES) |
| --- | --- |
| < 100 nM | CC1(C)C(=O)Nc2cc(Nc3nc4c(-c5c[nH]c6ccccc56)nccn4n3)ccc21 [E76, 6-[8-(1H-indol-3-yl)-[1,2,4]triazolo[1,5-a]pyrazin-2-ylamino]-3,3-dimethyl-1,3-dihydro-indol-2-one] |
| 300 to 3000 nM | CC1(C)C(=O)Nc2cc(Nc3nc4c(NCCN)nccn4n3)ccc21 [E110, 6-[8-(2-amino-ethylamino)-[1,2,4]triazolo[1,5-a]pyrazin-2-ylamino]-3,3-dimethyl-1,3-dihydro-indol-2-one] |
| < 100 nM | CC1(C)C(=O)Nc2cc(Nc3nc4c(-c5ccc6c(c5)OCCO6)nccn4n3)ccc21 [E142, 6-[8-(2,3-dihydro-benzo[1,4]dioxin-6-yl)-[1,2,4]triazolo[1,5-a]pyrazin-2-ylamino]-3,3-dimethyl-1,3-dihydro-indol-2-one] |
| < 100 nM | CC1CCCN1c1nccn2nc(Nc3ccc4c(c3)NC(=O)C4(C)C)nc12 (centres unmarked) [E42, 3,3-dimethyl-6-[8-(2-methyl-pyrrolidin-1-yl)-[1,2,4]triazolo[1,5-a]pyrazin-2-ylamino]-1,3-dihydro-indol-2-one] |
| 3000 to 50000 nM | CC1(C)C(=O)Nc2cc(Nc3nc4c(NCCCNc5nccn6nc(Nc7ccc8c(c7)NC(=O)C8(C)C)nc56)nccn4n3)ccc21 [E117, 6-[[8-[3-[[2-[(3,3-dimethyl-2-oxo-indolin-6-yl)amino]-[1,2,4]triazolo[1,5-a]pyrazin-8-yl]amino]propylamino]-[1,2,4]triazolo[1,5-a]pyrazin-2-yl]amino]-3,3-dimethyl-indolin-2-one] |
| 100 to 300 nM | Cn1cc(-c2nccn3nc(Nc4ccc(C(C)(C)C)cc4)nc23)cn1 [C62, (4-tert-butyl-phenyl)-[8-(1-methyl-1H-pyrazol-4-yl)-[1,2,4]triazolo[1,5-a]pyrazin-2-yl]-amine] |
| 300 to 3000 nM | COc1ccc(OC)c(Nc2nc3c(-c4ccccc4-c4ccccc4)nccn3n2)c1 [C3, (8-Biphenyl-2-yl-[1,2,4]triazolo[1,5-a]pyrazin-2-yl)-(2,5-dimethoxy-phenyl)-amine] |
| < 100 nM | CC1(C)C(=O)Nc2cc(Nc3nc4c(N5CCc6ccc(N)cc65)nccn4n3)ccc21 [E102, 6-[8-(6-amino-2,3-dihydro-indol-1-yl)-[1,2,4]triazolo[1,5-a]pyrazin-2-ylamino]-3,3-dimethyl-1,3-dihydro-indol-2-one] |
| < 100 nM | CC1(C)C(=O)Nc2cc(Nc3nc4c(N5CCC(c6ncc(C(F)(F)F)[nH]6)CC5)nccn4n3)ccc21 [E59] |
| < 100 nM | CC1(C)CCOc2cc(Nc3nc4c(N5CCC6(CC5)CNC(=O)O6)nccn4n3)ccc21 [E55, 8-[2-(4,4-dimethyl-chroman-7-ylamino)-[1,2,4]triazolo[1,5-a]pyrazin-8-yl]-1-oxa-3,8-diaza-spiro[4.5]decan-2-one] |
| < 100 nM | CC1(C)OC(=O)Nc2cc(Nc3nc4c(N5CCC6(CC5)CNC(=O)O6)nccn4n3)ccc21 [E47, 4,4-dimethyl-7-[8-(2-oxo-1-oxa-3,8-diaza-spiro[4.5]dec-8-yl)-[1,2,4]triazolo[1,5-a]pyrazin-2-ylamino]-1,4-dihydro-benzo[d][1,3]oxazin-2-one] |
| < 100 nM | CC1(C)C(=O)Nc2cc(Nc3nc4c(N5CCc6ccc(C#N)cc6C5)nccn4n3)ccc21 [E124, 2-[2-(3,3-dimethyl-2-oxo-2,3-dihydro-1H-indol-6-ylamino)-[1,2,4]triazolo[1,5-a]pyrazin-8-yl]-1,2,3,4-tetrahydro-isoquinoline-7-carbonitrile] |
| 100 to 300 nM | CC1=NC2(CCN(c3nccn4nc(Nc5ccc6c(c5)NC(=O)C6(C)C)nc34)CC2)C(=O)N1 [E71, 8-[2-(3,3-dimethyl-2-oxo-2,3-dihydro-1H-indol-6-ylamino)-[1,2,4]triazolo[1,5-a]pyrazin-8-yl]-2-methyl-1,3,8-triaza-spiro[4.5]dec-1-en-4-one] |
| < 100 nM | CC1(C)CCNc2cc(Nc3nc4c(N5CCC6(CC5)CNC(=O)C6)nccn4n3)ccc21 [E77, 8-[2-(4,4-dimethyl-1,2,3,4-tetrahydro-quinolin-7-ylamino)-[1,2,4]triazolo[1,5-a]pyrazin-8-yl]-2,8-diaza-spiro[4.5]decan-3-one] |
| 100 to 300 nM | CN(c1nccn2nc(Nc3ccc4c(c3)NC(=O)C4(C)C)nc12)C1CCNCC1 [E17, 3,3-dimethyl-6-[8-(methyl-piperidin-4-yl-amino)-[1,2,4]triazolo[1,5-a]pyrazin-2-ylamino]-1,3-dihydro-indol-2-one] |
| 300 to 3000 nM | CC1(C)C(=O)Nc2cc(Nc3nc4c(N[C@H]5C[C@H](N)C5)nccn4n3)ccc21 [C97, 6-[8-(trans-3-amino-cyclobutylamino)-[1,2,4]triazolo[1,5-a]pyrazin-2-ylamino]-3,3-dimethyl-1,3-dihydro-indol-2-one] |

| IC50 | Structure (SMILES) |
| --- | --- |
| 100 to 300 nM | CC1(C)C(=O)Nc2cc(Nc3nc4c(N5C[C@H](CO)C[C@H]5c5ccccc5)nccn4n3)ccc21 (single isomer, unassigned) [E98, 6-[8-((trans2)-4-hydroxymethyl-2-phenyl-pyrrolidin-1-yl)-[1,2,4]triazolo[1,5-a]pyrazin-2-ylamino]-3,3-dimethyl-1,3-dihydro-indol-2-one] |
| < 100 nM | CC1(C)C(=O)Nc2cc(Nc3nc4c(-c5cnn(CCO)c5)nccn4n3)ccc21 [E145, 6-{8-[1-(2-hydroxy-ethyl)-1H-pyrazol-4-yl]-[1,2,4]triazolo[1,5-a]pyrazin-2-ylamino)-3,3-dimethyl-1,3-dihydro-indol-2-one] |
| < 100 nM | CC1(C)C(=O)Nc2cc(Nc3nc4c(N5CCc6nc(N)ncc6C5)nccn4n3)ccc21 [E56, 6-[8-(2-amino-7,8-dihydro-5H-pyrido[4,3-d]pyrimidin-6-yl)-[1,2,4]triazolo[1,5-a]pyrazin-2-ylamino]-3,3-dimethyl-1,3-dihydro-indol-2-one] |
| < 100 nM | CC1(C)C(=O)Nc2cc(Nc3nc4c(N5CCC6(CCNC6=O)CC5)nccn4n3)ccc21 [E13, 8-[2-(3,3-dimethyl-2-oxo-2,3-dihydro-1H-indol-6-ylamino)-[1,2,4]triazolo[1,5-a]pyrazin-8-yl]-2,8-diaza-spiro[4.5]decan-1-one] |
| 3000 to 50000 nM | NS(=O)(=O)c1cccc(Nc2nc3c(-c4ccccc4-c4ccccc4)nccn3n2)c1 [C13, 3-(8-Biphenyl-2-yl-[1,2,4]triazolo[1,5-a]pyrazin-2-ylamino)-benzenesulfonamide] |
| 3000 to 50000 nM | COC1=CC2C=CN=C2C=C1Nc1nc2c(N3CCC4(CC3)CNC(=O)O4)nccn2n1 (centres unmarked) [E61, 8-[2-(5-methoxy-3aH-indol-6-ylamino)-[1,2,4]triazolo[1,5-a]pyrazin-8-yl]-1-oxa-3,8-diaza-spiro[4.5]decan-2-one] |
| 100 to 300 nM | CC(=O)N1CCC(N(C)c2nccn3nc(Nc4ccc5c(c4)NC(=O)C5(C)C)nc23)CC1 [E14, 6-{8-[(1-acetyl-piperidin-4-yl)-methyl-amino]-[1,2,4]triazolo[1,5-a]pyrazin-2-ylamino}-3,3-dimethyl-1,3-dihydro-indol-2-one] |
| < 100 nM | CC1(C)CCNc2cc(Nc3nc4c(N5CC[C@@]6(CNC(=O)C6)C5)nccn4n3)ccc21 [E101, (R)-7-[2-(4,4-dimethyl-1,2,3,4-tetrahydro-quinolin-7-ylamino)-[1,2,4]triazolo[1,5-a]pyrazin-8-yl]-2,7-diaza-spiro[4.4]nonan-3-one] |
| < 100 nM | Cn1cc(-c2nccn3nc(Nc4ccc5c(c4)NC(=O)C54CCC4)nc23)cn1 [E8, 6′-[[8-(1-methylpyrazol-4-yl)-[1,2,4]triazolo[1,5-a]pyrazin-2-yl]amino]spiro[cyclobutane-1,3′-indoline]-2′-one] |
| 3000 to 50000 nM | COc1cc(Nc2nc3c(N4CCNC(c5ccccc5)C4)nccn3n2)cc(OC)c1 (centres unmarked) [C54, (3,5-dimethoxy-phenyl)-[8-(3-phenyl-piperazin-1-yl)-[1,2,4]triazolo[1,5-a]pyrazin-2-yl]-amine] |
| 3000 to 50000 nM | CC1(C)C(=O)Nc2cc(Nc3nc4c(NS(=O)(=O)c5ccc(N)cc5)nccn4n3)ccc21 [E118, 4-amino-N-[2-(3,3-dimethyl-2-oxo-2,3-dihydro-1H-indol-6-ylamino)-[1,2,4]triazolo[1,5-a]pyrazin-8-yl]benzenesulfonamide] |
| < 100 nM | CC1(C)C(=O)Nc2cc(Nc3nc4c(N5C[C@@H](CO)C[C@H]5c5ccccc5)nccn4n3)ccc21 (single isomer, unassigned) [E95, 6-[8-((cis1)-4-hydroxymethyl-2-phenyl-pyrrolidin-1-yl)-[1,2,4]triazolo[1,5-a]pyrazin-2-ylamino]-3,3-dimethyl-1,3-dihydro-indol-2-one] |
| < 100 nM | COC(=O)C1CCN(c2nccn3nc(Nc4ccc5c(c4)NC(=O)C5(C)C)nc23)C1 (centres unmarked) [E2, 1-[2-(3,3-dimethyl-2-oxo-2,3-dihydro-1H-indol-6-ylamino)-[1,2,4]triazolo[1,5-a]pyrazin-8-yl]-pyrrolidine-3-carboxylic acid methyl ester] |
| < 100 nM | CC1(C)C(=O)Nc2cc(Nc3nc4c(N5Cc6cn[nH]c6C5)nccn4n3)ccc21 [E32, 6-[8-(4,6-dihydro-1H-pyrrolo[3,4-c]pyrazol-5-yl)-[1,2,4]triazolo[1,5-a]pyrazin-2-ylamino]-3,3-dimethyl-1,3-dihydro-indol-2-one] |
| 300 to 3000 nM | CC1(C)C(=O)Nc2cc(Nc3nc4c(NCCCN)nccn4n3)ccc21 [E122, 6-[8-(3-amino-propylamino)-[1,2,4]triazolo[1,5-a]pyrazin-2-ylamino]-3,3-dimethyl-1,3-dihydro-indol-2-one] |
| < 100 nM | CC1(C)C(=O)Nc2cc(Nc3nc4c(N5CCc6ccccc65)nccn4n3)ccc21 [E73, 6-[8-(2,3-dihydro-indol-1-yl)-[1,2,4]triazolo[1,5-a]pyrazin-2-ylamino]-3,3-dimethyl-1,3-dihydro-indol-2-one] |

Source: patent US9120804B2, “8-substituted 2-amino-[1,2,4] triazolo [1, 5-A] pyrazines as Syk tryrosine kinase inhibitors and GCN2 serin kinase inhibitors” (Merck Patent GmbH, priority 2012, dated 2015)
